Test results reported in patent publication US11274132B2, “Combined preparations of PKM2 modulators and HMGB1” (Ruprecht-Karls-Universität Heidelberg, priority 2015, dated 2022).
“Also recorded” adds a separate entry of the source. Where two headings read alike, the source gives them in different places. Residues, ends and D or L forms follow the SMILES beside them.

Assays:
[1] = system: CLL cells; assay: CellTiter-Glo Luminescent Cell Viability Assay; type: cell-based, human
[2] = system: colorectal cancer cells; assay: Crystal violet cytotoxicity assay, cell lines not given; type: cell-based
Protocol: (§1) Human colon carcinoma cell lines SW480, HCT116, HT29 and Caco2, the human glioblastoma cell line U251MG and the Natural killer cell line NK-92 Cl were purchased from ATCC. Cell lines were regularly tested for contamination by multiplex PCR performed in the Genomics and Proteomics Core Facility 2 (DKFZ, Heidelberg, Germany). For experiments, cells were cultured for no more than 10 passages. Rho zero cells were generated as described earlier 1. (Gdynia, G. et al. Danger signaling protein HMGB1 induces a distinct form of cell death accompanied by formation of giant mitochondria. Cancer research 70, 8558-8568). Cells used in the experiments were cultured in RPMI (#1640, colon carcinomas, NK cells) or DMEM high glucose (#41965-039, glioblastoma cells) medium. Rho zero cells were generated as described earlier (Gdynia, G. et al. ibd.). Briefly, cells were cultured in RPMI medium (10% FCS, 1% P/S) supplemented with 250 ng/ml ethidiumbromide, 50 μg/ml L-pyruvate and 5 mg/ml uridine over a period of 12 weeks. For cytotoxicity measurements, cells were cultured in 96-well plates, treated with recombinant human HMGB1 protein (Sigma-Aldrich®), glycyrrhizinic acid ((3β, 18α)-30-hydroxy-11, 30-dioxoolean-12-en-3-yl 2-O-β-D-glucopyranuronosyl-β-D-glucopyranosiduronic acid)) (Sigma-Aldrich®), 10 μM (non-toxic) or 100 μM (cytotoxic) P-M2tide (aa sequence: GGAVDDDpYAQFANGG; #BML-P239-0001; Enzo Life Sciences) or 100 μM ML-265 (Cayman Chemical), then cell viability was assessed by crystal violet staining (Gillies, R. J., Didier, N. & Denton, M. Determination of cell number in monolayer cultures. Analytical biochemistry 159, 109-113 (1986)). Malic enzyme 1 knock-down was performed with 40 nM siRNA using lipofectamine in 6-well plates followed by treatment with 80 nM HMGB1 for 72 h. Sequences of siRNA were: ME1, 5′-[…]-3′ and scrambled control 5′-CCUGCAGUACUUCAAGCGGtt-3′. PKM2 siRNA was from Santa Cruz. A nonspecific siRNA served as control (Dharmacon, Schwerte, Germany). For overexpression of PKM2 or ME1, cells were transfected with pCMV-PKM2 (Sino Biological Inc., Beijing, China) or pCMV-ME1 (OriGene, Rockville, Md., USA) using Lipofectamine 2000. For cytotoxicity measurements confluent cells were cultured in 96-well plates if not otherwise indicated. Cytotoxic activity of supernatants from stimulated NK cells was assessed in 96-well plates for 3 days with RPMI medium as reference. Recombinant human HMGB1 (10 ng, Sigma) suited as positive control. For mass isotopomer assays, cells were cultured in glucose- or glutamine-free medium supplemented with either uniformly labeled (U)-13C-D-glucose or U-13C-glutamine (Sigma-Aldrich®).

[3] = system: HCT116 colorectal cancer cells; assay: Crystal violet cytotoxicity assay; type: cell-based
Protocol: as §1

[4] = system: SW480 colorectal cancer cells; assay: Crystal violet cytotoxicity assay; type: cell-based
Protocol: as §1

[5] = system: HT29 cells; assay: Crystal violet cytotoxicity assay; type: cell-based; details: 72 h
Protocol: as §1

[6] = CellTiter-Glo Luminescent Cell Viability Assay; type: cell-based, human; details: human, CLL cells from a patient, DASA 100 μM, read-out: Viable cells [DASA]
[7] = system: glucose flux (glycolysis); assay: Glycolysis: conversion of 5-3H-Glucose to 3H2O; type: cell-based, human; details: SW480 cells; co-treatment, glycyrrhizin 200 μM
Protocol: Lactate derived from the metabolism of ^13C6-D-glucose or ^13C5-glutamine was determined by comparing the CH3 group intensities of labeled and non-labeled lactate in NMR. Mitochondrial respiration was measured using an Oroboros 1 oxygraph system. Glycolysis was measured by monitoring the conversion of 5-^3H-Glucose to ^3H2O. Incorporation of ^14C into RNA ribose from U-^14C-labelled glucose was taken as glucose utilization in the pentose phosphate shunt. Enzymatic activities were determined in subcellular fractions as previously described^24.

[8] = molecular target: T1, tetrameric PK M2 (Homo sapiens, UniProt P14618); assay: Pyruvate kinase enzymatic assay in cytosolic fractions / homogenates (low PEP); type: cell-based; details: glycyrrhizin 200 μM
T1 construct: Activities of glycolytic enzymes measured in cytosolic fractions after treatment with HMGB1; endogenous in cells; host or cells: SW480, HCT116, HT29 cytosolic fractions; homogenates of human colon cancer tissue slices
Protocol: Enzymatic activities of respiratory chain complexes, glycolytic proteins and malic enzyme were determined in subcellular fractions as previously described (Kaminski, M. M. et al. T cell activation is driven by an ADP-dependent glucokinase linking enhanced glycolysis with mitochondrial reactive oxygen species generation. Cell reports 2, 1300-1315 (2012).Bruncko, M. et al. Naphthamidine urokinase plasminogen activator inhibitors with improved pharmacokinetic properties. Bioorganic & medicinal chemistry letters 15, 93-98, (2005)) using a computer-tuneable spectrophotometer (Spectramax Plus Microplate Reader, Molecular Devices; Sunny Vale, Calif., USA) operating in the dual wavelength mode; samples were analyzed in temperature-controlled 96-well plates in a final volume of 300 μl. Activity of ME1 was recorded in presence of increasing amounts of malic acid (0.02, 0.05, 0.1, 0.2, 0.5, 1, 2.5 mM). Vmax and Km were calculated using a Hanes-Woolf plot. In the presence of high substrate levels the Km for malic acid was similar in all three tested cell lines (SW480: 0.32 mM, HCT116: 0.30 mM, HT29: 0.31 mM). Vmax (mU/mg protein) values were 3.38 (SW480, 0.5-5.0 mM malic acid), 5.77 (HCT116, 0.5-5.0 mM malic acid) and 3.68 (HT29, 0.5-5.0 mM malic acid) and 1.68 (SW480, 0.02-0.2 mM malic acid), 3.24 (HCT116, 0.02-0.2 mM malic acid) and 1.89 (HT29, 0.02-0.2 mM malic acid). Two isoforms of ME1, mitochondrial (NAD(P)+dependent) ME3 and mitochondrial (NAD+dependent) ME2, had very low or no detectable activities (data not shown).

[9] = molecular target: PKM2 (Homo sapiens, UniProt P14618); assay: Immunoprecipitation with 125I-labeled HMGB1 (PKM2 pull-down); type: binding; set-up: endogenous in cells; details: P-M2tide at non-cytotoxic concentrations
Protocol: FIG. 6: Co-administration of HMGB1 and an activator (A left and right) or an inhibitor (B) of PMK2 has a synergistic cytotoxic effect, as determined in the crystal violet cytotoxicity assay (assays were performed in duplicate, * indicates p<0.05). (C) Immunoprecipitation with I125-labeled HMGB1 (PKM2 pull-down). HMGB1, like phosphotyrosine-peptides, binds close to the allosteric center of PKM2, leading to a competition in binding.

[10] = 72 h, NK cell derived HMGB1 approx. 16 nM, recombinant human HMGB1 80 nM
[11] = glycyrrhizin as inhibitor of HMGB1
[12] = supernatants of anti-Nkp30 stimulated blood NK cells, glycyrrhizin 200 μM, 72 h

Chain of PKM2 (P14618 whole entry): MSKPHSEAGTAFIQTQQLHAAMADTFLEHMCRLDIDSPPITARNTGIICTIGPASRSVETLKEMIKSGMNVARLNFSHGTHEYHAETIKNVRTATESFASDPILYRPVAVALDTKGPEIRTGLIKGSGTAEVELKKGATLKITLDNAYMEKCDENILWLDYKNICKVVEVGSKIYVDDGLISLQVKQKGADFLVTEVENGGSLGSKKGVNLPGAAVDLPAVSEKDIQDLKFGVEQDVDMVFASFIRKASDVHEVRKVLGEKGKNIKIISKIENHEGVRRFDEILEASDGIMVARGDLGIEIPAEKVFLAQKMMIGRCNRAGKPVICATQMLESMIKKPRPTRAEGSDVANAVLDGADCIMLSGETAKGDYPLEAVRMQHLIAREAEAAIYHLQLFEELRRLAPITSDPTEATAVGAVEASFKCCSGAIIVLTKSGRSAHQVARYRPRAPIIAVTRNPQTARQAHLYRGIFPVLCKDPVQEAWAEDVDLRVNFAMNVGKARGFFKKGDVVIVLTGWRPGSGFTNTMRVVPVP
T1 sequence (P14618 2-531): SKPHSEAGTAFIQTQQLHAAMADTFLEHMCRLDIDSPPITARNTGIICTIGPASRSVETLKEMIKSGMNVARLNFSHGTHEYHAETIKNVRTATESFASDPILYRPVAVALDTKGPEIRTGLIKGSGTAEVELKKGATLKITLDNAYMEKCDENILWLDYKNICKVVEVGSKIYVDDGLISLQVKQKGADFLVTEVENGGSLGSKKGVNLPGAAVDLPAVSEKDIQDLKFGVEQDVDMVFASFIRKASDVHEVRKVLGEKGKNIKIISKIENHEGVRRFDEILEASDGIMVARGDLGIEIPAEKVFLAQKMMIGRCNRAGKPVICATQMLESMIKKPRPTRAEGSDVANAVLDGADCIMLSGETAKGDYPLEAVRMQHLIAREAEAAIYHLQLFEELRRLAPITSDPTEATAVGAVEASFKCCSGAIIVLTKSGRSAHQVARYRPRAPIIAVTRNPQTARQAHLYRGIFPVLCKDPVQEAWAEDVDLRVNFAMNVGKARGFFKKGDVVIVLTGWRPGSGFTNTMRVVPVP

For `CC(C)[C@H](NC(=O)[C@H](C)NC(=O)CNC(=O)CN)C(=O)N[C@@H](CC(=O)O)C(=O)N[C@@H](CC(=O)O)C(=O)N[C@@H](CC(=O)O)C(=O)N[C@@H](Cc1ccc(OP(=O)(O)O)cc1)C(=O)N[C@@H](C)C(=O)N[C@@H](CCC(N)=O)C(=O)N[C@@H](Cc1ccccc1)C(=O)N[C@@H](C)C(=O)N[C@@H](CC(N)=O)C(=O)NCC(=O)NCC(=O)O` [P-M2tide, GGAVDDDpYAQFANGG] (HELM PEPTIDE1{G.G.A.V.D.D.D.[O=C([C@H](Cc1ccc(OP(=O)(O)O)cc1)N[*:1])[*:2]].A.Q.F.A.N.G.G}$$$$V2.0), the “Viable cells [PM2-tide]” value ([1]; patient P0010, sample 13PB0501, PM2-tide 100 μM, 250 µM) was 100%, the “Viable cells [PM2-tide]” value ([1]; patient P0010, sample 14PB0132, PM2-tide 100 μM, 250 µM) was 75% and the “Viable cells [PM2-tide]” value ([1]; patient P0074, sample 14BP0079, * responding to 100 μM PM2-tide) was 46%*. The “Viable cells [PM2-tide]” value ([1]; patient P0369, sample 13PB0555, PM2-tide 100 μM, 250 µM) was 100%, the “Viable cells [PM2-tide]” value ([1]; patient P0460, sample 14PB0471, * responding to 100 μM PM2-tide) was 56%* and the “Viable cells [PM2-tide]” value ([1]; patient P0641, sample 13PB0500, PM2-tide 100 μM, 250 µM) was 100%. The “Viable cells [PM2-tide]” value ([1]; patient P0641, sample 13PB0649, PM2-tide 100 μM, 250 µM) was 93%, the “Viable cells [PM2-tide]” value ([1]; patient P0645, sample 13PB0473, PM2-tide 100 μM, 250 µM) was 91% and the “Viable cells [PM2-tide]” value ([1]; patient P0701, sample 14PB0451, PM2-tide 100 μM, 250 µM) was 100%. For the same molecule, the toxicity ([2]; 10 μM P-M2tide) was “non-toxic” and the toxicity ([2]; 100 μM P-M2tide) was “cytotoxic”.
For “NK cell derived HMGB1: HMGB1 isolated from the cytosolic granules of the NK cell line NK-92 CI by HPLC (eluate #38)”, the “cell death (cytotoxicity)” value [3, 10] was “efficiently killed”, the “cell death (cytotoxicity)” value [4, 10] was “efficiently killed” and the “side-by-side cytotoxicity versus recombinant HMGB1” value ([5]; 80 nM or 160 nM) was “higher cytotoxicity than recombinant HMGB1”.
In the case of “HPLC-purified HMGB1: HPLC-purified HMGB1 from the supernatant of Nkp30 stimulated blood donor NK cells”, the cytotoxicity ([2]; 80 nM, 24 h, diluted in IgG1 control supernatant) is reported as “substantial cytotoxicity”.
`O=S(=O)(c1ccc2c(c1)OCCO2)N1CCN(S(=O)(=O)c2c(F)cccc2F)CC1` [DASA, 1-(2,6-Difluorophenylsulfonyl)-4-(2,3-dihydrobenzo[b][1,4]dioxin-6-ylsulfonyl)piperazine] showed a viability at 100 μM ([6]; patient P0010, sample 13PB0501) of 100%, a viability at 100 μM ([6]; patient P0010, sample 14PB0132) of 67% and a viability at 100 μM ([6]; patient P0074, sample 14BP0079) of 37%. The viability at 100 μM ([6]; patient P0369, sample 13PB0555) was 100%, the viability at 100 μM ([6]; patient P0460, sample 14PB0471) was 72% and the viability at 100 μM ([6]; patient P0641, sample 13PB0500) was 100%. It also gave a viability at 100 μM ([6]; patient P0641, sample 13PB0649) of 88%, a viability at 100 μM ([6]; patient P0645, sample 13PB0473) of 90% and a viability at 100 μM ([6]; patient P0701, sample 14PB0451) of 100%.
In the case of `CC[C@H]1/C=C/C=C/C[C@@H](C)[C@H](O)[C@@](C)(O)C(=O)[C@@H](C)[C@H](O)[C@@H](C)C(=O)[C@@H](C)[C@H](O)[C@@H](C)/C=C/C(=O)O[C@@H]2[C@H](C)[C@H](CC1)O[C@]1(CC[C@H](C)[C@H](C[C@@H](C)O)O1)[C@H]2C` [oligomycin, reference compound], the cell death ([3]; oligomycin 10 ng/ml, 72 h) is reported as “rapid cell death” and the cell death ([4]; oligomycin 10 ng/ml, 72 h) is reported as “rapid cell death”.
In the case of `[N-]=[N+]=CC(=O)CC[C@H](N)C(=O)O` [L-DON, 6-diazo-5-oxo-L-norleucine], the “cytotoxicity of glutaminolysis inhibition together with HMGB1” value ([2]; L-DON 1 μM with HMGB1, glucose deprived and glucose supplemented medium) is reported as “synergistic cytotoxicity”.
For `CC1(C)[C@@H](O[C@H]2O[C@H](C(=O)O)[C@@H](O)[C@H](O)[C@H]2O[C@@H]2O[C@H](C(=O)O)[C@@H](O)[C@H](O)[C@H]2O)CC[C@]2(C)[C@H]3C(=O)C=C4[C@@H]5C[C@@](C)(C(=O)O)CC[C@]5(C)CC[C@@]4(C)[C@]3(C)CC[C@@H]12` [glycyrrhizin, (3β, 18α)-30-hydroxy-11, 30-dioxoolean-12-en-3-yl 2-O-β-D-glucopyranuronosyl-β-D-glucopyranosiduronic acid, reference compound], the “reversal of HMGB1-induced metabolic shift” value [7] was “partly reversed”, the “restoration of tetrameric PK M2 activity inhibited by NK cell supernatant” value [8] was “completely restored” and the “blocking of HMGB1 cytotoxic effects” value [3, 11] was “significantly blocked”. For the same molecule, the “effect on NK cell-dependent cytotoxic effect” value [3, 12] was “diminished”, the “blocking of HMGB1 cytotoxic effects” value [4, 11] was “significantly blocked” and the “effect on NK cell-dependent cytotoxic effect” value [4, 12] was “not changed”. For the same molecule, the “effect on NK cell-dependent cytotoxic effect” value ([5]; supernatants of anti-Nkp30 stimulated blood NK cells, glycyrrhizin 200 μM) was “diminished”.
For `Cn1c2cc([S+](C)[O-])sc2c2cnn(Cc3cccc(N)c3)c(=O)c21` (stereo not shown) [ML-265, 6-(3-aminobenzyl)-4-methyl-2-(methylsulfinyl)-4,6-dihydro-5H-thieno[2′,3′:4,5]pyrrolo[2,3-d]pyridazin-5-one], the “competition with binding of HMGB1 to PKM2” value [9] was “did not compete”, the “competition with binding of HMGB1 to PKM2” value ([9]; listed as ML265) was “does not compete” and the “induction of cell death” value ([2]; 100 μM, 24 h) was “did not induce cytotoxicity; also recorded: not able to induce cell death”.
